Legend:
[1] = test system: adults with biopsy-confirmed NASH; assay: 36-week Phase 2 serial MRI-PDFF and liver biopsy study: liver volume and PDFF; assay type: in vivo, human
Description: Hepatomegaly may cause symptoms (e.g., pain) in NASH patients, and is thought to be driven primarily by high liver fat content. […] This study was to assess the relationship between liver triglycerides as measured by MRI-PDFF and liver volume (LV) in placebo and resmetirom-treated patients.
LV was assessed using a validated artificial intelligence model for segmenting the liver on standard MR images.
LV at baseline was elevated in non-cirrhotic and cirrhotic NASH patients relative to literature values for healthy controls and was greater than predicted even after accounting for sex and body weight. PDFF correlated with LV at baseline in non-cirrhotic (r2=0.19, p<0.001) and more weakly in cirrhotic NASH (r2=0.079, p=0.01).

[2] = test system: noncirrhotic NASH with stage 2 or stage 3 fibrosis; assay: Trial 1 Month 12 histopathology efficacy analysis (F2 and F3); assay type: in vivo, human
Description: Patients were on stable doses of medications for diabetes, dyslipidemia, and hypertension. […] Two pathologists, Pathologist A and Pathologist B, independently read the liver biopsies for each patient. […] Liver fibrosis was evaluated on the NASH Clinical Research Network (CRN) fibrosis score as 0 to 4. […] No worsening of steatohepatitis was defined as no increase in NAS for ballooning, inflammation, or steatosis. […] Estimated using the Mantel-Haenszel method stratified by baseline type 2 diabetes status (presence or absence) and fibrosis stage (F2 or F3). 95% stratified Newcombe confidence intervals (CIs) are provided. Patients with missing liver biopsy at Month 12 were considered a non-responder.

[3] = test system: well-compensated NASH cirrhotic patients; assay: MAESTRO-NAFLD-1 open label well-compensated NASH cirrhotic arm, 52 weeks; assay type: in vivo, human
Description: LV was assessed using a validated artificial intelligence model for segmenting the liver on standard MR images. […] Eligibility required at least 3 metabolic risk factors (metabolic syndrome), and NASH cirrhosis diagnosed on liver biopsy or according to accepted criteria. […] Demographics include mean age 62.7 (9.0 (SD)), female 64%, BMI 35.4 (7.4), diabetes 70%, hypertension 77%, dyslipidemia >70%, mean ASCVD score 16.1%, hypothyroid 32.4%, 51% on statins. […] Stage of cirrhosis was inversely correlated with baseline PDFF.

[4] = target: T1, CYP2C8 (Homo sapiens, UniProt P10632); assay: Concomitant use with a CYP2C8 inhibitor; design: from tissue; host or cells: human subjects in vivo (endogenous enzyme); conditions: in vivo
T1 sequence (P10632 1-490): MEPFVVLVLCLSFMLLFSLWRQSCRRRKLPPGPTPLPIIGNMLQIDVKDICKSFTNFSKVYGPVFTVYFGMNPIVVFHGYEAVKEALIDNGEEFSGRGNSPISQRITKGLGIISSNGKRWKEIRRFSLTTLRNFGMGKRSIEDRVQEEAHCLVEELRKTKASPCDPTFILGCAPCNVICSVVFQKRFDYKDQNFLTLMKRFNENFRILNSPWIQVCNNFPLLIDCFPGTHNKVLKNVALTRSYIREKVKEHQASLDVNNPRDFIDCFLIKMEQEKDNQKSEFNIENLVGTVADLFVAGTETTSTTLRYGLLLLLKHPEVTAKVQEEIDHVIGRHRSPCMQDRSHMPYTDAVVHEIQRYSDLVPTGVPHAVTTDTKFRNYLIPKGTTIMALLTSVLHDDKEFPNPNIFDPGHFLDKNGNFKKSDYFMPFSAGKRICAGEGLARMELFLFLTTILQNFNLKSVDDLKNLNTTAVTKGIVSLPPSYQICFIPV

[5] = test system: NASH patients with and without possible MetALD; assay: MAESTRO-NASH: possible MetALD subgroup; assay type: in vivo, human; conditions: for Fibrosis Improvement, % of patients / Fibrosis Improvement, number of patients / NASH Resolution, % of patients / NASH Resolution, number of patients: Week 52
Description: Analyses were performed on 782 patients who had both a baseline and Week 52 biopsy. Patients with a self-declared consumption of alcohol ≤2 drinks/day for men and ≤1.5 drinks/day for women were included as per usual MASH diagnostic recommendations. However, in attempt to objectify undisclosed moderate alcohol consumption above those limits, at baseline or during the trial, CDT measurements were performed longitudinally in all patients over 52 weeks. Post-randomization, a phosphatidylethanol (PEth) test was performed in patients tested for alcohol consumption based on increased liver enzymes ALT, AST and/or GGT (<2%). Those with increased PEth were included as MetALD. Patients with baseline or post-baseline CDT>2.5% (ULN 2.47) and/or a PEth>20 ng/mL (ULN 20 ng/mL) were assigned to a “possible MetALD” subgroup (possible increased alcohol consumption).

[6] = cirrhotic NASH, PDFF≤5% at baseline, week 16
[7] = MASH/NASH (low alcohol), 80 mg (n = 224)
[8] = MASH/NASH (low alcohol), 100 mg
[9] = MASH/NASH (low alcohol), 100 mg (n = 228)
[10] = low or no alcohol consumption, 80 mg
[11] = low or no alcohol consumption, 100 mg

With CC(C)c1cc(Oc2c(Cl)cc(-n3nc(C#N)c(=O)[nH]c3=O)cc2Cl)n[nH]c1=O [Resmetirom, 2-(3,5-dichloro-4-((5-isopropyl-6-oxo-1,6-dihydropyridazin-3-yl)oxy)phenyl)-3,5-dioxo-2,3,4,5-tetrahydro-1,2,4-triazine-6-carbonitrile] the “LV reduction (CFB)” value ([1]; 12 weeks) was −18.6%, the “LV reduction (CFB)” value ([1]; 36 weeks) was −20.5% and the “patients with ≥15% reduction in liver volume” value ([1]; Week 12) was 69.2%. The “Improvement in liver fibrosis, no worsening of steatohepatitis: response rate, Pathologist A” value ([2]; 80 mg) was 23%, the “Improvement in liver fibrosis, no worsening of steatohepatitis: response rate, Pathologist B” value ([2]; 80 mg) was 23% and the “Improvement in liver fibrosis: difference in response rate vs. placebo (95% CI), Pathologist A” value ([2]; 80 mg) was 8 (2, 14). For the same molecule, the “Improvement in liver fibrosis: difference in response rate vs. placebo (95% CI), Pathologist B” value ([2]; 80 mg) was 11 (5, 17), the “Resolution of steatohepatitis, no worsening of fibrosis: response rate, Pathologist A” value ([2]; 80 mg) was 27% and the “Resolution of steatohepatitis, no worsening of fibrosis: response rate, Pathologist B” value ([2]; 80 mg) was 26%. For the same molecule, the “Resolution of steatohepatitis: difference in response rate vs. placebo (95% CI), Pathologist A” value ([2]; 80 mg) was 14 (8, 20), the “Resolution of steatohepatitis: difference in response rate vs. placebo (95% CI), Pathologist B” value ([2]; 80 mg) was 17 (11, 23) and the “Improvement in liver fibrosis, no worsening of steatohepatitis: response rate, Pathologist A” value ([2]; 100 mg) was 28%. For the same molecule, the “Improvement in liver fibrosis, no worsening of steatohepatitis: response rate, Pathologist B” value ([2]; 100 mg) was 24%, the “Improvement in liver fibrosis: difference in response rate vs. placebo (95% CI), Pathologist A” value ([2]; 100 mg) was 13 (7, 20) and the “Improvement in liver fibrosis: difference in response rate vs. placebo (95% CI), Pathologist B” value ([2]; 100 mg) was 11 (5, 17). The “Resolution of steatohepatitis, no worsening of fibrosis: response rate, Pathologist A” value ([2]; 100 mg) was 36%, the “Resolution of steatohepatitis, no worsening of fibrosis: response rate, Pathologist B” value ([2]; 100 mg) was 24% and the “Resolution of steatohepatitis: difference in response rate vs. placebo (95% CI), Pathologist A” value ([2]; 100 mg) was 23 (16, 30). The “Resolution of steatohepatitis: difference in response rate vs. placebo (95% CI), Pathologist B” value ([2]; 100 mg) was 15 (9, 21), the “fibroscan CAP change” value ([3]; 80-100 mg daily, week 52) was −42 units and the “fibroscan kPa change” value ([3]; 80-100 mg daily, week 52) was −7.6 kPa. For the same molecule, the “LV mean %CFB” value [3, 6] was −16.3%, the “PDFF mean %CFB” value [3, 6] was −2.5% and the ApoB reduction ([3]; in vivo) was 20%. The Blood pressure reduction ([3]; in vivo) was 4-5 mm, the GGT change ([3]; in vivo) was −27% and the LDL-C reduction ([3]; in vivo) was 20%. For the same molecule, the “Lp(a) reduction” value ([3]; in vivo) was 30%, the “alkaline phosphatase (ALP) change” value ([3]; in vivo) was −18% and the safety and tolerability ([3]; in vivo) was “safe and well-tolerated”. For the same molecule, the triglycerides reduction ([3]; in vivo) was 21%, the “PDFF lowered by” value ([3]; patients with baseline PDFF>5%) was 37% and the Liver volume change ([3]; week 16) was −15.9%. For the same molecule, the “MRE lowered by” value ([3]; week 52) was 0.68 kPa, the “patients with >15% reduction in LV” value ([3]; week 52) was 73% and the “patients with MRE reduction of ≥15%” value ([3]; week 52) was 34%. The “effect of concomitant CYP2C8 inhibitor on exposure” value [4] was “increase resmetirom Cmax and AUC”, the “MRI-PDFF ≥30% reduction, % of patients” value ([5]; MASH/NASH (low alcohol), 80 mg) was “(59.2%)” and the “MRI-PDFF ≥30% reduction, patients/evaluated” value ([5]; MASH/NASH (low alcohol), 80 mg) was 109/184. For the same molecule, the “Fibrosis Improvement, % of patients” value [5, 7] was 29%, the “Fibrosis Improvement, number of patients” value [5, 7] was 65 and the “NASH Resolution, % of patients” value [5, 7] was 29.9%. For the same molecule, the “NASH Resolution, number of patients” value [5, 7] was 67, the “MRI-PDFF ≥30% reduction, % of patients” value [5, 8] was “(71.2%)” and the “MRI-PDFF ≥30% reduction, patients/evaluated” value [5, 8] was 136/191. The “Fibrosis Improvement, % of patients” value [5, 9] was 33.3%, the “Fibrosis Improvement, number of patients” value [5, 9] was 76 and the “NASH Resolution, % of patients” value [5, 9] was 36%. For the same molecule, the “NASH Resolution, number of patients” value [5, 9] was 82, the “MRI-PDFF ≥30% reduction, % of patients” value ([5]; MetALD, 80 mg) was “(88%)” and the “MRI-PDFF ≥30% reduction, patients/evaluated” value ([5]; MetALD, 80 mg) was 23/26. For the same molecule, the “Fibrosis Improvement, % of patients” value ([5]; MetALD, 80 mg (n = 34)) was 35%, the “Fibrosis Improvement, number of patients” value ([5]; MetALD, 80 mg (n = 34)) was 12 and the “NASH Resolution, % of patients” value ([5]; MetALD, 80 mg (n = 34)) was 29%. The “NASH Resolution, number of patients” value ([5]; MetALD, 80 mg (n = 34)) was 10, the “MRI-PDFF ≥30% reduction, % of patients” value ([5]; MetALD, 100 mg) was “(81%)” and the “MRI-PDFF ≥30% reduction, patients/evaluated” value ([5]; MetALD, 100 mg) was 13/16. For the same molecule, the “Fibrosis Improvement, % of patients” value ([5]; MetALD, 100 mg (n = 20)) was 30%, the “Fibrosis Improvement, number of patients” value ([5]; MetALD, 100 mg (n = 20)) was 6 and the “NASH Resolution, % of patients” value ([5]; MetALD, 100 mg (n = 20)) was 35%. For the same molecule, the “NASH Resolution, number of patients” value ([5]; MetALD, 100 mg (n = 20)) was 7, the “NASH resolution, patients” value [5, 10] was 29.9% and the “fibrosis improvement, patients” value [5, 10] was 29%. For the same molecule, the “≥30% reduction from baseline in MRI-PDFF, patients” value (shortened to “≥30% reduction from baseline”) [5, 10] was 59.2%, the “NASH resolution, patients” value [5, 11] was 36% and the “fibrosis improvement, patients” value [5, 11] was 33.3%. For the same molecule, the “≥30% reduction from baseline” value [5, 11] was 71.2%, the “NASH resolution, patients” value ([5]; possible MetALD, 80 mg) was 29% and the “fibrosis improvement, patients” value ([5]; possible MetALD, 80 mg) was 35%. For the same molecule, the “≥30% reduction from baseline” value ([5]; possible MetALD, 80 mg) was 88%, the “NASH resolution, patients” value ([5]; possible MetALD, 100 mg) was 35% and the “fibrosis improvement, patients” value ([5]; possible MetALD, 100 mg) was 30%. For the same molecule, the “≥30% reduction from baseline” value ([5]; possible MetALD, 100 mg) was 81%.
